Data as given in PMC4823954, “From fighting depression to conquering tumors: a novel tricyclic thiazepine compound as a tubulin polymerization inhibitor” (Cell Death & Disease, 2016).

Legend:
[1] = parallel artificial membrane permeability assay (PAMPA); type: in vitro ADME
Excerpt: (§1) As in vivo investigations are generally time consuming and expensive, it is advantageous to eliminate those compounds that are not suitable for animal experiments. One of the necessary steps is to screen the initial hits using assays testing their possible behaviors in vivo. To evaluate the drug-like properties of TBPT, a panel of in vitro assays was preformed (Table 1). The parallel artificial membrane permeability assay (PAMPA) was used to evaluate the cell permeability of the compounds. Compounds with a Pe >[…] are classified as highly permeable. […] The Caco-2 assay was used to predict the oral absorption values of the compounds in vivo. Compounds with a Caco-2 efflux ratio >2 may be subject to active efflux and should not be developed further. […] The half-life (T1/2) in human liver microsomes is used to predict the metabolism properties of compounds in vivo. […] A very long T1/2 (>24 h) increases the risk of cumulative toxicity and is not desirable. […] T1/2 in plasma indicates the stability of the drug in human blood; the high T1/2 values of these compounds indicated better stability in vivo. Plasma protein binding influences the distribution of drugs into body tissues, and compounds with high plasma protein binding (>99%) are limited in terms of the amount of free compound that are available to act on the targeted tissue. […]

[2] = human liver microsome stability; type: in vitro ADME; conditions: liver microsomes, read-out: T1/2 in human liver microsome (converted)
Excerpt: as §1

plasma protein binding = type: in vitro ADME
Excerpt: as §1

P-gp = target: T1, P-gp (Homo sapiens, UniProt P08183); experiment: P-gp ATPase activity assay; type: biochemical; conditions: compared with DMSO; TBPT 2 μM, 1 h; human cell membrane P-gp fractions
T1 construct: purchased Promega Biotech, Madison, WI, USA
Procedure: The P-gp ATPase activity was determined in human cell membrane P-gp fractions using a luminescence-based assay.
The P-gp ATPase activity assay was conducted using the P-gp Glo Assay System following the manufacturer's protocol (Promega Biotech, Madison, WI, USA). […] Then, the luminescence was measured using a POLARstar Galaxy luminometer (BMG Labtech, Offenburg, Germany). The change in luminescence was calculated by comparing the Na3VO4-treated samples with the other compound-treated samples. The change in luminescence change is proportional to the ATP consumption in the samples, which correlated positively with the P-gp ATPase activity.

tubulin = target: T2, tubulin (Sus scrofa, UniProt P02550+P02554); experiment: Tubulin polymerization assay (cell-free); type: biochemical; conditions: fluorescence, 50 min, 37 °C, read-out: IC50 of tubulin polymerization (microtubule formation)
T2 construct: purchased Cytoskeleton, Denver, CO, USA
Procedure: A fluorescence-based tubulin polymerization assay kit was used to monitor the polymerization process according to the manufacturer's instructions (Cytoskeleton, Denver, CO, USA). […] Tubulin solution (50 μl) was dispensed rapidly into each well.

H460 [3] = experiment: Apoptosis flow cytometry (PI/Annexin V-FITC); type: cell-based, human; conditions: NSCLC cells (H460), 2 μM, 48 h
H460TaxR = experiment: Mitochondrial membrane potential (JC-1); type: cell-based, human; conditions: 2 μM, 12 h
Procedure: (§2) The mitochondrial membrane potential was determined using JC-1 dye (Beyotime, Beijing, China). NSCLC cells (4 × 10^4 cells in 0.5 ml) were seeded in 24-well culture plates. […] Carbonyl cyanide m-chlorophenylhydrazone (CCCP; 10 μM), a mitochondrial membrane disrupter, was used to treat cells for 20 min as a positive control. Then, the cells were incubated with 200 μl JC-1 working solution at 37 °C for 20 min. After the cells were washed in RPMI-1640 medium, they were observed and imaged using a fluorescence microscope (Olympus IX71).

H460 [4] = experiment: Mitochondrial membrane potential (JC-1); type: cell-based, human; conditions: H460, 2 μM, 12 h
Procedure: as §2

NHFB cells = experiment: Cell cycle and apoptosis analysis; type: cell-based, human; conditions: 2 μM
[5] = target: T3, ABL1(E255K)-phosphorylated (Homo sapiens, UniProt P00519, E255K); experiment: KINOMEscan; type: binding; conditions: read-out: % Ctrl
T3 construct: purchased DiscoveRx KINOMEscan

[6] = target: T4, ABL1(H396P)-phosphorylated (Homo sapiens, UniProt P00519, H396P); experiment: KINOMEscan; type: binding; conditions: read-out: % Ctrl
T4 construct: purchased DiscoveRx KINOMEscan

EGFR(T790M) = target: T5, EGFR(T790M) (Homo sapiens, UniProt P00533, T790M); experiment: KINOMEscan; type: binding; conditions: read-out: % Ctrl
T5 construct: purchased DiscoveRx KINOMEscan

FLT3(D835Y) = target: T6, FLT3(D835Y) (Homo sapiens, UniProt P36888, D835Y); experiment: KINOMEscan; type: binding; conditions: read-out: % Ctrl
T6 construct: purchased DiscoveRx KINOMEscan

FLT3(ITD) = experiment: KINOMEscan; type: binding, human
Procedure: The binding assay for 442 non-mutant kinases was performed using KINOMEscan (DiscoveRx Corporation, Fremont, CA, USA) as reported previously.[58], [59] TBPT was screened at concentrations of 5 and 10 μM to identify the affected kinases. KINOMEscan is based on a competition reaction that quantitatively measures the ability of a test compound to compete with an active site-directed ligand for binding to the kinase active site. […] After the assay plates were incubated with shaking for 1 h, the liganded beads were washed with washing buffer (1 × PBS and 0.05% Tween 20). Then, the beads were re-suspended in elution buffer (1 × PBS, 0.05% Tween 20, and 0.5 μM ligand) and incubated with shaking for 30 min. The kinase concentration in the eluates was measured via qPCR. The results are represented as ‘%Ctrl', which was calculated using the following formula: (test compound signal–positive control signal)/(DMSO signal–positive control signal) × 100%. A lower % Ctrl indicates stronger binding to the kinase active site.

KIT(A829P) = target: T7, KIT(A829P) (Homo sapiens, UniProt P10721, A829P); experiment: KINOMEscan; type: binding; conditions: read-out: % Ctrl
T7 construct: purchased DiscoveRx KINOMEscan

KIT(V559D,V654A) = target: T8, KIT(V559D,V654A) (Homo sapiens, UniProt P10721, V559D/V654A); experiment: KINOMEscan; type: binding; conditions: read-out: % Ctrl
T8 construct: purchased DiscoveRx KINOMEscan

RET(V804L) = target: T9, RET(V804L) (Homo sapiens, UniProt P07949, V804L); experiment: KINOMEscan; type: binding; conditions: read-out: % Ctrl
T9 construct: purchased DiscoveRx KINOMEscan

[7] = mouse, in vivo
Procedure: Five injections of vehicle and TBPT (30 or 60 mg/kg) were administered intravenously at days 1, 3, 5, 7 and 9 (arrows). Four injections of PTX (10 mg/kg) were administered intravenously at days 1, 3, 5 and 7. (a) The tumor volume was measured every other day. When the tumor volume in the solvent-treated group exceeded 1500 mm^3, the experiment was terminated. (b) Blood biochemical and hematological analyses. (c) The body weights of the mice were monitored every other day during the experiments. *P<0.05, Student's t-test with day 0, N=5
Figure 3 Histopathological examination of the major organs from TBPT or PTX-treated mouse tumor at the end of the experiments. The cross-sections of organs were stained with hematoxylin–eosin. […] The scale bars represent 50 μm and are uniform in each column
H460 and H460TaxR cells (5 × 10^6 cells in 100 μl PBS) were injected subcutaneously into the dorsal flank of each mouse. When the tumors reached volumes of 100 mm^3, the mice were divided randomly into four groups. The mice were treated every other day five times with intravenous injections of (1) vehicle (the solvent of TBPT: 60% PBS, 8% Cremophor EL, 8% EtOH, 12% poly propylene glycol and 12% PEG-400), (2) TBPT (30 mg/kg) or (3) TBPT (60 mg/kg). Another group was treated with PTX (10 mg/kg) every other day four times as the positive control. The tumor dimensions and body weights were measured every other day. The tumor volume was calculated according to a standard formula: volume=width^2 × length/2. The experiment was terminated and the mice were killed when the tumor volumes in the solvent-treated group exceeded 1500 mm^3. The mouse organs and blood were collected and used for hematoxylin–eosin staining and serum chemistry assay. TGI rates were assessed using the following formula: TGI=1− (Tt−T0)/(Ct−C0) × 100%. Tt and T0 indicate the tumor volumes of the treated group at days t and 0. Ct and C0 indicate the tumor volumes of the control group at days t and 0, respectively.

T9 sequence (P07949 29-1114 V804L): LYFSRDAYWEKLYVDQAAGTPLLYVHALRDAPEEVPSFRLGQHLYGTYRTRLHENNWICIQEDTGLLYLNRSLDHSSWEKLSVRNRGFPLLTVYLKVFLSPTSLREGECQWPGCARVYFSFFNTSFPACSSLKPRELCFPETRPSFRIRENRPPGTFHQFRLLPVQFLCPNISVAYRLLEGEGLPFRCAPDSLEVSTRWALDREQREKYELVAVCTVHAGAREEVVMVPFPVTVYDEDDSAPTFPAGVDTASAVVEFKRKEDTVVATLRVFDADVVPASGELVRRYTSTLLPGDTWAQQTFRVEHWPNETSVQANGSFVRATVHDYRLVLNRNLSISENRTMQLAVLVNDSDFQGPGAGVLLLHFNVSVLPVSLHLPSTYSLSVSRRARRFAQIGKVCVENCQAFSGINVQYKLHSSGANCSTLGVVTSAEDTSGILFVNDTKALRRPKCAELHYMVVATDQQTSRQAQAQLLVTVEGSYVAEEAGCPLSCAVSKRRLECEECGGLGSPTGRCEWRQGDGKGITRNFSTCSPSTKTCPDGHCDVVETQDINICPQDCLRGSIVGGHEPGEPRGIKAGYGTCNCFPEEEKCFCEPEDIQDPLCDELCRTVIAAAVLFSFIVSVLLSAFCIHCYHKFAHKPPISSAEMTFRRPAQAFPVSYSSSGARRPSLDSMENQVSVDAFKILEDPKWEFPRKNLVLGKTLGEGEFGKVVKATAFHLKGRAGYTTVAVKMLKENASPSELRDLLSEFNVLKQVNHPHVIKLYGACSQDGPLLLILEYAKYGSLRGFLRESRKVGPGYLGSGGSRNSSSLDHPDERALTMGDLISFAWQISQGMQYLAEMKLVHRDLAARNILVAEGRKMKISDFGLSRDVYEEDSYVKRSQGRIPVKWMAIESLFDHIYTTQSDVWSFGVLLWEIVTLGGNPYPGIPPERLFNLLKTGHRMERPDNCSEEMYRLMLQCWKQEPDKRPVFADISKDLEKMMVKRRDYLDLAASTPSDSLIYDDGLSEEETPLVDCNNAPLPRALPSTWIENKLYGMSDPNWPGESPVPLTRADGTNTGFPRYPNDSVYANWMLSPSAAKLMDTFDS
T5 sequence (P00533 25-1210 T790M): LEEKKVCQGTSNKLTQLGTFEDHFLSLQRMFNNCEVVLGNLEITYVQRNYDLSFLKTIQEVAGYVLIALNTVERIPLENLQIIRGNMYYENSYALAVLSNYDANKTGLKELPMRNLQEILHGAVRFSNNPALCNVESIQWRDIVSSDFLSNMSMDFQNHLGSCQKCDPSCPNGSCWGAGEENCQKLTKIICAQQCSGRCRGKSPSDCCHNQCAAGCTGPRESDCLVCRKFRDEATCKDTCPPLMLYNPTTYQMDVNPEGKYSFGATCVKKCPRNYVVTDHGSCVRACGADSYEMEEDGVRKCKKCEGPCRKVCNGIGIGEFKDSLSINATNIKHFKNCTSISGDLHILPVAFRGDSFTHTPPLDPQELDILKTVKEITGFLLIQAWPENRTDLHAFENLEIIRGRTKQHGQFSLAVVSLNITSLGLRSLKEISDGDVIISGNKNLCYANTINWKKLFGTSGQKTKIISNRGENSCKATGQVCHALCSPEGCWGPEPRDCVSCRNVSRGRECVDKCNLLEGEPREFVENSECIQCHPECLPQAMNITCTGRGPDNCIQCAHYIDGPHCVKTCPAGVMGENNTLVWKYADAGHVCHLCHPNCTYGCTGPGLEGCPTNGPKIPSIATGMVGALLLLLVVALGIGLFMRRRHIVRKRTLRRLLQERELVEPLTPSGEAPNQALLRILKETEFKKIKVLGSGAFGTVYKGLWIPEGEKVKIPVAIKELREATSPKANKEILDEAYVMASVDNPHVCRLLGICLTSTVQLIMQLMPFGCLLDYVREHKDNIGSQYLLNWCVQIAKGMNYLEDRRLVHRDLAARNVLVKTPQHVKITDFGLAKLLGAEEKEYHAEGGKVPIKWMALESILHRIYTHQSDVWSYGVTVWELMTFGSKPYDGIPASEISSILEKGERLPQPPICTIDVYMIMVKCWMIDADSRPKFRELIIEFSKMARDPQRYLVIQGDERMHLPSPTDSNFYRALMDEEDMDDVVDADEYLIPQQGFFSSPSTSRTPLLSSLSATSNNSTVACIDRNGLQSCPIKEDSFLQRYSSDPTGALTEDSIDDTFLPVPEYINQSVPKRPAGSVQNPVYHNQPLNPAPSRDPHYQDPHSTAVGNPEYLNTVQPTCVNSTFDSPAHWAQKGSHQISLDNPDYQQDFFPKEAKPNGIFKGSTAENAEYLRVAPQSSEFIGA
T8 sequence (P10721 26-976 V559D/V654A): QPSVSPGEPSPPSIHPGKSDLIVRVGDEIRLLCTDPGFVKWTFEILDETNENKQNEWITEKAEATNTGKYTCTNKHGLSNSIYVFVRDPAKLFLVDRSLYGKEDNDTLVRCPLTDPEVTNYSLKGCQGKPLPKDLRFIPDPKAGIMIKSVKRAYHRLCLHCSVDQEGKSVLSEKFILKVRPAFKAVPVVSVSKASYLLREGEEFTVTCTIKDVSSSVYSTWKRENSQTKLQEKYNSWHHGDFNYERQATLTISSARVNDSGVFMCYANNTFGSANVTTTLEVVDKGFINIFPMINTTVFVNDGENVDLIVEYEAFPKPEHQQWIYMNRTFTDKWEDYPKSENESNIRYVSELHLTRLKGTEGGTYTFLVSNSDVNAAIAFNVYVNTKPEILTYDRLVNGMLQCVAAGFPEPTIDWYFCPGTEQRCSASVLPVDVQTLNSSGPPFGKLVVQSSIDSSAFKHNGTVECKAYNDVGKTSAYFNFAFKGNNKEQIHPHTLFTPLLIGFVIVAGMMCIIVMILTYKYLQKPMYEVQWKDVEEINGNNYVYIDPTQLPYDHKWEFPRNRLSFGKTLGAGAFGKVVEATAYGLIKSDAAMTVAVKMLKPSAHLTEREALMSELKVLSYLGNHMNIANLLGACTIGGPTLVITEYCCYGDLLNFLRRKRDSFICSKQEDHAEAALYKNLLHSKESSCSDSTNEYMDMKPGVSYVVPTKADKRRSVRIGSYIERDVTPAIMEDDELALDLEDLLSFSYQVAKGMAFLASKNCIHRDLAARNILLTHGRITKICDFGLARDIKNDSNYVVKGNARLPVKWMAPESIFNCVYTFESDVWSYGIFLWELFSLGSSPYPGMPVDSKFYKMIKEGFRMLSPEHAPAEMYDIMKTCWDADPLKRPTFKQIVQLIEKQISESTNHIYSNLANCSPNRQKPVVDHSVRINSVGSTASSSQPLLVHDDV
T7 sequence (P10721 26-976 A829P): as the sequence (P10721 26-976 V559D/V654A) above, with D534V, A629V, A804P counted along it
T1 sequence (P08183 whole entry): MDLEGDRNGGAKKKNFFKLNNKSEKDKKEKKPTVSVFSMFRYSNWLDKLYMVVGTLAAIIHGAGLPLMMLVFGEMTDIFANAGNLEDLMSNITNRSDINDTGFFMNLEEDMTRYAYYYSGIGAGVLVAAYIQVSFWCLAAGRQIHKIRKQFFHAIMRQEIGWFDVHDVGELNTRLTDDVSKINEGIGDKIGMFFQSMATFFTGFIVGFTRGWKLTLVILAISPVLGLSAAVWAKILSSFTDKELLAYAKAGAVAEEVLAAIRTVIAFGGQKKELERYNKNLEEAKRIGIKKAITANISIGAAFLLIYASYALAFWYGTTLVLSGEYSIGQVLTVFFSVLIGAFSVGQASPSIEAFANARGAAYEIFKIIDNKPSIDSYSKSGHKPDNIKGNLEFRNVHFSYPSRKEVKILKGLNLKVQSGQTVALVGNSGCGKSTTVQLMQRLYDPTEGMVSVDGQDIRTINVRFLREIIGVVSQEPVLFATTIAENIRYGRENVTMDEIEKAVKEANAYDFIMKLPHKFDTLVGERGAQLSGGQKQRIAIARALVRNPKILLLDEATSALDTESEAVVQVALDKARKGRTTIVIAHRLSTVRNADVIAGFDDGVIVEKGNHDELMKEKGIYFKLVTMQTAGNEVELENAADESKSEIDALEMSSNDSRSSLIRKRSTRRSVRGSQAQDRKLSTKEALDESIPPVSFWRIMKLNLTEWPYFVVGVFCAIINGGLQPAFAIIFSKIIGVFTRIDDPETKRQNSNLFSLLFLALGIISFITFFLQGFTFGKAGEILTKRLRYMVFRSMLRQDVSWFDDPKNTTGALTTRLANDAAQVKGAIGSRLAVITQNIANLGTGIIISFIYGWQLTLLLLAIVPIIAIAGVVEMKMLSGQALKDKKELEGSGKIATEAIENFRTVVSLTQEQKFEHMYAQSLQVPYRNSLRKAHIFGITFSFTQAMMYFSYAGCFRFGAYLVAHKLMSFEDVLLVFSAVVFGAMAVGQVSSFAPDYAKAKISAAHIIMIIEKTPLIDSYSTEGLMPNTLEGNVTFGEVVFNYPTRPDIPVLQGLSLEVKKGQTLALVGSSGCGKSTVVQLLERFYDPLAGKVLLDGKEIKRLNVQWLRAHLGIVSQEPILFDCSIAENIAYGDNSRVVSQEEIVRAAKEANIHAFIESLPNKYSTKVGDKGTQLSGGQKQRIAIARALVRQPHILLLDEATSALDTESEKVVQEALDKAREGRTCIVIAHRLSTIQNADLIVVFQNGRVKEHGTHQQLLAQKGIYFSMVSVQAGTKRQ

Q: For Cc1ccc(C2=Nc3cccnc3S(=O)(=O)c3ccccc32)cc1 [TBPT, 6-(p-tolyl)benzo[f] pyrido[2,3-b][1,4] thiazepine 11,11-dioxide], which “PAMPA Pe” value [1] is on record?
A: 1081.1±30.2 10^−6cm/s

Q: And the half-life [2]?
A: 5.18 ± 0.69 h

Q: What about the fraction unbound (plasma protein binding) of the same molecule?
A: 0.0164

Q: What about the “P-gp ATPase activity” value (P-gp) of the same molecule?
A: did not induce P-gp ATPase activity

Q: What about the IC50 (tubulin) of the same molecule?
A: 12.6 µM

Q: What about the “cells in an apoptotic/necrotic state” value (H460 [3]) of the same molecule?
A: approximately 50%

Q: What about the mitochondrial membrane potential (H460TaxR) of the same molecule?
A: decreased significantly

Q: What about the mitochondrial membrane potential (H460 [4]) of the same molecule?
A: decreased significantly

Q: What about the “cell cycle arrest or apoptosis” value (NHFB cells) of the same molecule?
A: very little cell cycle arrest or apoptosis

Q: What about the remaining binding at 5 µM ([5]; 5 μM) of the same molecule?
A: 60%

Q: What about the remaining binding at 10 µM ([5]; 10 μM) of the same molecule?
A: 89%

Q: What about the remaining binding at 5 µM ([6]; 5 μM) of the same molecule?
A: 68%

Q: And the remaining binding at 10 µM ([6]; 10 μM)?
A: 92%

Q: What about the remaining binding at 5 µM (EGFR(T790M); 5 μM) of the same molecule?
A: 100%

Q: And the remaining binding at 10 µM (EGFR(T790M); 10 μM)?
A: 96%

Q: What about the remaining binding at 5 µM (FLT3(D835Y); 5 μM) of the same molecule?
A: 92%

Q: What about the remaining binding at 10 µM (FLT3(D835Y); 10 μM) of the same molecule?
A: 100%

Q: And the “% Ctrl” value (FLT3(ITD); 5 μM)?
A: 95%

Q: What about the “% Ctrl” value (FLT3(ITD); 10 μM) of the same molecule?
A: 100%

Q: What about the remaining binding at 5 µM (KIT(A829P); 5 μM) of the same molecule?
A: 95%

Q: And the remaining binding at 10 µM (KIT(A829P); 10 μM)?
A: 96%

Q: And the remaining binding at 5 µM (KIT(V559D,V654A); 5 μM)?
A: 97%

Q: What about the remaining binding at 10 µM (KIT(V559D,V654A); 10 μM) of the same molecule?
A: 90%

Q: What about the remaining binding at 5 µM (RET(V804L); 5 μM) of the same molecule?
A: 100%

Q: What about the remaining binding at 10 µM (RET(V804L); 10 μM) of the same molecule?
A: 86%

Q: What about the “histopathological examination of the major organs” value [7] of the same molecule?
A: No pathological changes were observed
